The values that follow come from ChEMBL document CHEMBL5291721, “A preclinical secondary pharmacology resource illuminates target-adverse drug reaction associations of marketed drugs” (Nat Commun, 2023).

The target in test [1] is T1, Alpha-1A adrenergic receptor (Homo sapiens, UniProt P35348).
T1 sequence (P35348 whole entry): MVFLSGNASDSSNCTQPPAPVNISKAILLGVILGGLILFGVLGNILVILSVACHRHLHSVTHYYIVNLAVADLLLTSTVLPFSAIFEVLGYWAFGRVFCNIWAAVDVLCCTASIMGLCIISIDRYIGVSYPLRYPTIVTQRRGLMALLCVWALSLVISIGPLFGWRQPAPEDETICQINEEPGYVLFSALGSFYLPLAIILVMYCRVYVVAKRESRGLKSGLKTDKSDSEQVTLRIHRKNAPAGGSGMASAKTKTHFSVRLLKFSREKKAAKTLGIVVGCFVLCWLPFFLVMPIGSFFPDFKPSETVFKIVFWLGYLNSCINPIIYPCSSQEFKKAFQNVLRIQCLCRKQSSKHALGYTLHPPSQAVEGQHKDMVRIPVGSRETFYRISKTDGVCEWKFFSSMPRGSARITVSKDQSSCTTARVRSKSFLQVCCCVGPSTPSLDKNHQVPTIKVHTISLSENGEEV
It is filed as functional, cell-based.

The target of test [2] is D(3) dopamine receptor (Homo sapiens, UniProt P35462).
D(3) dopamine receptor, sequence (P35462 whole entry): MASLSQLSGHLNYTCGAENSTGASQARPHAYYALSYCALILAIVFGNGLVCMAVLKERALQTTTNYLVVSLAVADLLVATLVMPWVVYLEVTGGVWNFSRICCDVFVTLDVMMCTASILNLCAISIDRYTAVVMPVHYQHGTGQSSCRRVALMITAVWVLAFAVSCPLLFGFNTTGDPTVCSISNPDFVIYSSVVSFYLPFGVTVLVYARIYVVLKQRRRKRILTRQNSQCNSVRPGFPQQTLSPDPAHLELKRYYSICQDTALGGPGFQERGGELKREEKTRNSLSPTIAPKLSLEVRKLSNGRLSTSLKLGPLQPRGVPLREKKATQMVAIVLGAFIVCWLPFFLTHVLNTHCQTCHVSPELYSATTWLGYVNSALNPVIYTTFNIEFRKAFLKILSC
Test [3] deals with Sodium-dependent dopamine transporter (Homo sapiens, UniProt Q01959).
Sodium-dependent dopamine transporter, sequence (Q01959 whole entry): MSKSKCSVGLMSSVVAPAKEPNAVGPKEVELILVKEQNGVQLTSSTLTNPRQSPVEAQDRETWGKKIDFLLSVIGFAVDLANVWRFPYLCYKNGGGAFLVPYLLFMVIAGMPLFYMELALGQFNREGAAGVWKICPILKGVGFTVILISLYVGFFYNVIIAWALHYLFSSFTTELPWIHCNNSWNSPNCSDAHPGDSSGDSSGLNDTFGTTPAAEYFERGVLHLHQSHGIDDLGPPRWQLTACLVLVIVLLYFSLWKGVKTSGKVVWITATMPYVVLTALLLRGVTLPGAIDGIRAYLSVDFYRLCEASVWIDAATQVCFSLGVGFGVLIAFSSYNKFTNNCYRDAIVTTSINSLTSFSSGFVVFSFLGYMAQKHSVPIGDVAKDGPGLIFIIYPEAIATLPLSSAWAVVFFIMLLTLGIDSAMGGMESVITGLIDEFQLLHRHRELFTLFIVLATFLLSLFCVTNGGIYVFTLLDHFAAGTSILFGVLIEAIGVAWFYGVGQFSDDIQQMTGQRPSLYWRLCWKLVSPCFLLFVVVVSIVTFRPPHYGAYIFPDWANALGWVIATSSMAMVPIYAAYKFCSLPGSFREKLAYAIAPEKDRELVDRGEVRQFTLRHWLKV
Test [4] has as its target Gamma-aminobutyric acid receptor subunit alpha-1 (Rattus norvegicus, UniProt P62813).
For test [5], the target named is Voltage-gated inwardly rectifying potassium channel KCNH2 (Homo sapiens, UniProt Q12809). In kind it is functional.
Voltage-gated inwardly rectifying potassium channel KCNH2, sequence (Q12809 whole entry): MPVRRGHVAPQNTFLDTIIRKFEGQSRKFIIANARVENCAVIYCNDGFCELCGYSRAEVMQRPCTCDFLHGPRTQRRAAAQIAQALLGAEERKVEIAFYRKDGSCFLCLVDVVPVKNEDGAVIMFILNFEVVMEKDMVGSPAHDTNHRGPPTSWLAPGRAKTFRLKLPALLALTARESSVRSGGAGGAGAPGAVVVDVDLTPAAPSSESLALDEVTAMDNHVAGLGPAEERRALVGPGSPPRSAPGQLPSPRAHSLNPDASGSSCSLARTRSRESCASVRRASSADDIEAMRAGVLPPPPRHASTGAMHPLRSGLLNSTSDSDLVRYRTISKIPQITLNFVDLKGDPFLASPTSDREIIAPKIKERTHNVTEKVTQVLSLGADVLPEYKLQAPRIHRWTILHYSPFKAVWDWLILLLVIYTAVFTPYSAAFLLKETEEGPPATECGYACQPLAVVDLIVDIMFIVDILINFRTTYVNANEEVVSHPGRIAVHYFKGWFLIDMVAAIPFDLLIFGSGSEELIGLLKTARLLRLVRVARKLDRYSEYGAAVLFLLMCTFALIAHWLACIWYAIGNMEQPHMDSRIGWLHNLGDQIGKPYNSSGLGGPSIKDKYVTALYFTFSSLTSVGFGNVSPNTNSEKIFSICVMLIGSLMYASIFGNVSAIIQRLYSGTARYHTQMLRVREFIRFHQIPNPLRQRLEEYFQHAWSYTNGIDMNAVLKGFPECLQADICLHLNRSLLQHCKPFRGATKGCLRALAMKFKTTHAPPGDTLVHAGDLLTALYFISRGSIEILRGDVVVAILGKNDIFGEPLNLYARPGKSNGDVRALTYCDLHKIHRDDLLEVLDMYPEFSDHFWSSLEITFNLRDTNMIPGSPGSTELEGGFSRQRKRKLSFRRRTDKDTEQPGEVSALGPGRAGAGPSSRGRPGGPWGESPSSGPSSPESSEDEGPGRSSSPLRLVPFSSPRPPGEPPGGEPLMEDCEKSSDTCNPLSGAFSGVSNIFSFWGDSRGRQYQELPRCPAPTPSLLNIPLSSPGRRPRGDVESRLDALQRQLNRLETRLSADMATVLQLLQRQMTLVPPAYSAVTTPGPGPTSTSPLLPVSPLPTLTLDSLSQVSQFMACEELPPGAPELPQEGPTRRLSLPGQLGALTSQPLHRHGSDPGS
For test [6], the target named is T2, 5-hydroxytryptamine receptor 3A (Homo sapiens, UniProt P46098).
T2 sequence (P46098 whole entry): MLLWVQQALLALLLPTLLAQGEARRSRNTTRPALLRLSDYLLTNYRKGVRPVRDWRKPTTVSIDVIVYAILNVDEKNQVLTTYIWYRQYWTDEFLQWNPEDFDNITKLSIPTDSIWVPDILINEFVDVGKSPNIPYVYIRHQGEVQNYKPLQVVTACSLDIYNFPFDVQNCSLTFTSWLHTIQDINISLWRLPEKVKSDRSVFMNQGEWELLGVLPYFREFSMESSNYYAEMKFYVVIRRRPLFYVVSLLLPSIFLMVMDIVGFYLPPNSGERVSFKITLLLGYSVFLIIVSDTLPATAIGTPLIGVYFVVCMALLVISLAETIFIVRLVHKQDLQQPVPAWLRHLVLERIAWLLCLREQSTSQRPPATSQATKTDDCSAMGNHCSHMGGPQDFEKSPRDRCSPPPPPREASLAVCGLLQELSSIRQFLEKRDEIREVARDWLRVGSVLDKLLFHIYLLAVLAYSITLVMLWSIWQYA
It is filed as functional.

Test [7] concerns the target T3, Cholecystokinin receptor type A (Homo sapiens, UniProt P32238).
T3 sequence (P32238 whole entry): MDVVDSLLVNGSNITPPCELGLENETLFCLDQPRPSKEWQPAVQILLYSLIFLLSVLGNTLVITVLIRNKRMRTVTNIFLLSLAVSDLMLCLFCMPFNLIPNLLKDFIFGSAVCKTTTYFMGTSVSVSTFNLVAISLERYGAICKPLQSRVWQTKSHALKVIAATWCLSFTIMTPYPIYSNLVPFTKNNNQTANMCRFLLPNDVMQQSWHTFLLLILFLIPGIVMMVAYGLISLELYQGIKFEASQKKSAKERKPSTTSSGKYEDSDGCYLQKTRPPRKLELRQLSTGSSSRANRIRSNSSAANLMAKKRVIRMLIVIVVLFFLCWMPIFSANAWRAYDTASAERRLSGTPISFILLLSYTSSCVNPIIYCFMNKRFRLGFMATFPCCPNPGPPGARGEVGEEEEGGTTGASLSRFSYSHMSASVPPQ

Test [8] deals with D(1A) dopamine receptor (Homo sapiens, UniProt P21728). It is filed as functional, cell-based.
D(1A) dopamine receptor, sequence (P21728 whole entry): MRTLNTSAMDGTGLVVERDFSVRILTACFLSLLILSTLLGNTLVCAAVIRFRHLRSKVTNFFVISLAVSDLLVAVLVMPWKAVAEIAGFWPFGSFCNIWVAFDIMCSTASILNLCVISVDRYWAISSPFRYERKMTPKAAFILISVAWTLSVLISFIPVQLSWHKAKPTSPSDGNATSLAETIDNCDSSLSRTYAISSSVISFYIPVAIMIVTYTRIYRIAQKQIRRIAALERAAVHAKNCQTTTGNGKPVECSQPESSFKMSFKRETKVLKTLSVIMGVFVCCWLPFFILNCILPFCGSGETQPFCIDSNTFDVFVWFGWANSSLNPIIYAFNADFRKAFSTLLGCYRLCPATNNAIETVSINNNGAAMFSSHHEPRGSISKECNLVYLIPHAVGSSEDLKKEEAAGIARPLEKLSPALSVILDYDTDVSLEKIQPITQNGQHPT
Test [9] addresses T4, Progesterone receptor (Homo sapiens, UniProt P06401).
T4 sequence (P06401 whole entry): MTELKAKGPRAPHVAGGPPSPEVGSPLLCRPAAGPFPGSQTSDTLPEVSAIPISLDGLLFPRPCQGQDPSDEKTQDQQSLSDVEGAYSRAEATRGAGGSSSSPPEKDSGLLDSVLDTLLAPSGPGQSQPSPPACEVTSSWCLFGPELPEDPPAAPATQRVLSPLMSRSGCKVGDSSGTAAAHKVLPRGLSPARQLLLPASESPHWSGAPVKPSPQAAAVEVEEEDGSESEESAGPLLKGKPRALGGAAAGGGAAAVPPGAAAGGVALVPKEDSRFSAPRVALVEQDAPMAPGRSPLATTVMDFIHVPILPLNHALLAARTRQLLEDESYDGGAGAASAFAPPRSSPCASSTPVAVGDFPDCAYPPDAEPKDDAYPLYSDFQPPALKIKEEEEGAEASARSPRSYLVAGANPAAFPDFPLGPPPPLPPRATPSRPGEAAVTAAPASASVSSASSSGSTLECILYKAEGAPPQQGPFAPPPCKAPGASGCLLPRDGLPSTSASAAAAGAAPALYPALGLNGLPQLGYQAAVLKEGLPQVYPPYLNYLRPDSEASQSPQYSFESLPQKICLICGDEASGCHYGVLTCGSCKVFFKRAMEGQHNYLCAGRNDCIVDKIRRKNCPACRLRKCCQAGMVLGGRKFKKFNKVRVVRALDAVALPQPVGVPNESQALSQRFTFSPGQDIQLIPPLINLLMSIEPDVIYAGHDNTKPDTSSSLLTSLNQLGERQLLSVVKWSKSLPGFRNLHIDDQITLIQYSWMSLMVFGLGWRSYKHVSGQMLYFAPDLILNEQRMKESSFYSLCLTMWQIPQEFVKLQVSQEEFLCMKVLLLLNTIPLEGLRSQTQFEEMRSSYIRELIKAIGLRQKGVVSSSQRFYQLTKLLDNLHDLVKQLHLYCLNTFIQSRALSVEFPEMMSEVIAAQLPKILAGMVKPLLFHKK
In kind it is functional.
Note: assay procedure not described here.

Gamma-aminobutyric acid receptor subunit alpha-1, sequence (P62813 whole entry): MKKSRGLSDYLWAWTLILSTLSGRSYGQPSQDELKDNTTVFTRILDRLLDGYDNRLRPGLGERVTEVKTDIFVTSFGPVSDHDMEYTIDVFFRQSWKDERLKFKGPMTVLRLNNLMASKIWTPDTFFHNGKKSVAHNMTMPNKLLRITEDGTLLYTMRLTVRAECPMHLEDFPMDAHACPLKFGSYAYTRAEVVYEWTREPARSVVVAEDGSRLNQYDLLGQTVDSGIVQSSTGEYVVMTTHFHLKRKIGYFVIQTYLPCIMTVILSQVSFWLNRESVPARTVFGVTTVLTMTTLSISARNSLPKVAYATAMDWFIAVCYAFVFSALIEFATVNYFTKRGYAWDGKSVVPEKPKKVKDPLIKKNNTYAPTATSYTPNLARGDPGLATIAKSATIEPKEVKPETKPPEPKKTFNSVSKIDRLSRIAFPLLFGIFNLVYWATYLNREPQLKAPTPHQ

As to `CC(=O)SC[C@@H](C)C(=O)N1CCC[C@H]1C(=O)N[C@@H](Cc1ccccc1)C(=O)O`, the half-maximal activity concentration (AC50) in [1], in test [2], in [3], in test [4], in [5] and in test [6] was over 30 µM in each case. Besides, the AC50 in test [7], in test [8] and in test [9] was over 30 µM throughout.
In the case of `NC(=O)CN1CCCC1=O`, the AC50 in test [1], in test [2], in [3], in test [4], in test [5] and in test [6] was over 30 µM in each case. The AC50 in test [7], in [8] and in [9] was over 30 µM each time.
For the compound `C[N@+]1(CCF)[C@@H]2CC[C@H]1C[C@@H](OC(=O)C(O)(c1ccccc1)c1ccccc1)C2`, the concentration at half-maximal activity (AC50) was over 30 µM in test [1]; over 30 µM in [2]; over 30 µM in test [3]; over 30 µM in [4]; 2.38 µM in test [5]; over 30 µM in [6]. The AC50 in test [7], in [8] and in test [9] was over 30 µM each time.
Consider `CC(=O)O[C@H](CC(=O)[O-])C[N+](C)(C)C` [ACETYLCARNITINE], for which the AC50 in test [1], in [2], in test [3], in [4], in test [5] and in test [6] was over 30 µM throughout. For the same compound, the AC50 in [7], in test [8] and in test [9] was over 30 µM in each case.
As to `CCN1CCCC1CNC(=O)c1cc(S(=O)(=O)CC)c(N)cc1OC` (stereo not given) [AMISULPRIDE], the AC50 in test [1], in [4], in test [6], in test [8] and in [9] was over 30 µM in each case.
As to `O=C(O)CCNC(=O)c1ccccc1` [BETAMIPRON], the AC50 in [1], in test [2], in test [3], in test [4], in test [5] and in test [6] was over 30 µM each time. Also, the AC50 in test [7], in test [8] and in test [9] was over 30 µM throughout.
`O=C1CN=C(c2ccccn2)c2cc(Br)ccc2N1` [BROMAZEPAM]: the AC50 in test [1] is 11 µM; in test [2], over 30 µM; in test [3], over 10 µM; in [4], over 10 µM; in [5] it was over 30 µM; in test [6], over 30 µM. Moreover, the AC50 in test [7], in [8] and in test [9] was over 10 µM each time.
Consider `C=C1/C(=C\C=C2/CCC[C@]3(C)[C@@H]([C@H](C)/C=C/[C@@H](O)C4CC4)CC[C@@H]23)C[C@@H](O)C[C@@H]1O` [CALCIPOTRIENE], for which the AC50 in [1], in [2], in test [3], in [4], in test [5] and in test [6] was over 30 µM throughout. The AC50 in test [7], in [8] and in [9] was over 30 µM in each case.
For the compound `CCN(CC)C(=O)Nc1ccc(OCC(O)CNC(C)(C)C)c(C(C)=O)c1` (stereo not given) [CELIPROLOL], the AC50 was over 30 µM in [1]; over 30 µM in [2]; over 30 µM in [3]; over 30 µM in [4]; 17 µM in test [5]; over 30 µM in [6]. The AC50 in [7], in test [8] and in test [9] was over 30 µM throughout.
For the compound `C=C[C@@]1(C)CC(=O)[C@]2(O)[C@@]3(C)[C@@H](O)CCC(C)(C)[C@@H]3[C@H](O)[C@H](OC(C)=O)[C@@]2(C)O1` [COLFORSIN], the AC50 in [1], in test [2], in [3], in test [4], in test [5] and in [6] was over 30 µM throughout. Also, the AC50 in [7] and in test [9] was over 30 µM throughout.
As for `CCCCCCCCCCCCCCCCCCCCCC(=O)Nc1ccn([C@@H]2O[C@H](CO)[C@@H](O)[C@@H]2O)c(=O)n1` [ENOCITABINE], the AC50 in test [1], in [2], in test [3], in [4], in test [5] and in [6] was over 30 µM throughout. Moreover, the AC50 in [7], in test [8] and in [9] was over 30 µM each time.
For the compound `CCCCCC(=O)O[C@]1(C(C)=O)CC[C@H]2[C@@H]3CCC4=CC(=O)CC[C@]4(C)[C@H]3CC[C@@]21C` [HYDROXYPROGESTERONE CAPROATE], the AC50 was over 30 µM in [1]; over 30 µM in test [2]; 21.3 µM in test [3]; over 30 µM in [4]; over 30 µM in [5]; over 30 µM in test [6]. The AC50 is over 30 µM in test [7], over 30 µM in test [8] and 0.003 µM in [9].
For the compound `O=C(O)c1ccccc1Nc1cc(Cl)ccc1C(=O)O` [LOBENZARIT], the AC50 in [1], in [2], in [3], in [4], in [5] and in [6] was over 30 µM in each case. Further, the AC50 in test [7], in test [8] and in test [9] was over 30 µM each time.
Consider `NC1CCN(c2nc3c(cc2F)c(=O)c(C(=O)O)cn3-c2ccc(F)cc2F)C1` (stereo not given) [TOSUFLOXACIN], for which the AC50 in [1], in test [2], in test [3], in test [5], in [6] and in [7] was over 30 µM throughout. Besides, the AC50 in test [8] and in [9] was over 30 µM throughout.
